# Like-named read-outs stand apart in the source and are kept apart here. Where no end group is shown, it is not given here.
# Columns and labels:
# [1] = MDA-MB-231 cell viability (CellTiter 96 AQuous One); format: cell-based, human; settings: human, MDA-MB-231 human breast cancer cells; MDA-MB-231 cells, incubated two days, apoEdp about 6 to about 300 μM; read-out: 50% cytotoxic dose
# Description: (§1) To determine whether apoEdp affects cell survival, cell viability of human umbilical vein endothelial cells (HUVECs) and MDA-MB-231 human breast cancer cells was determined by using CellTiter 96® AQuous One solution cell proliferation kit (Promega, Madison, Wis.).
# (§2) HUVECs were obtained from Lonza (Walkersville, Md.) and were maintained in endothelial cell basal medium (EBM-2) (Lonza, Walkersville, Md.) supplemented with 10% fetal bovine serum (FBS) and growth factors. (bullet kit, Lonza, Walkersville, Md.) HUVECs were used between passages 2-6. Human Breast Cancer cells MDA-MB-231 were obtained from the American Type Tissue Collection and cultured in Dulbecco's Modified Eagle's medium supplemented with 10% fetal bovine serum, 0.1 mg/mL streptomycin and 25 U/mL penicillin.
# (§3) The MDA-MB-231 cells were in 96-well plates at about 5,000 cells per well. The MDA-MB-231 cells were then allowed to adhere to the plate with apoEdp in various concentrations in the range of about 6 μM to about 300 μM. The cells were incubated for two days, and cell numbers were determined using the CellTiter 96® AQuous One Solution cell proliferation kit. (Promega, Madison, Wis.)
# [2] = test system: MDA-MB-231 human breast cancer cells; experiment: as above; format: cell-based; settings: MDA-MB-231 cells, apoEdp up to 300 μM
# Description: as §1, §2, §3
# [3] = test system: VEGF-induced angiogenesis; experiment: Rabbit corneal micropocket assay of VEGF-induced angiogenesis; format: in vivo, New Zealand White Rabbits; settings: rabbit eye, 1% apoEdp eye drops 50 μL topically five times per day for five days, versus saline drops
# Description: The effect of apoEdp on angiogenesis in vivo was observed by testing its inhibitory effect on VEGF-induced angiogenesis in a corneal micropocket assay of a rabbit eye model. A corneal micropocket was created with a modified von Graefe cataract knife in each eye of several 2-3 pound New Zealand White Rabbits. A micropellet of 500 μm by 500 μm was prepared which contained 0.4 g of Compritol 888 ATO (Gattefosse) combined with 0.1 g of Squalane oil (Sigma Aldrich) and 20 mg/mL L-α-Phosphatidylcholine. The 20 mg/mL L-α-Phosphatidylcholine contained either saline for the control subjects or 160 ng of VEGF for the test subjects. The right eye of each test subject was implanted with a VEGF-containing pellet and the left eye of each test subject was implanted with a saline-containing pellet. Each of the pellets was positioned about 2 mm from the corneal limbus. […] The area of neovascular response, vessel length and clock hours of new blood vessel formation of each group were all calculated according to the formula, Area (mm^2)=C/12×3.1416[r^2−(r−L)^2] where, C=the number of clock hours at the limbus involved in the neovascular response, L=the length of the longest neovascular pedicle from the limbus onto the anterior cornea, and r=the radius of the cornea.
# [4] = test system: MDA-MB-231 human breast cancer cells xenograft; format: in vivo; settings: nude mice, about 40 mg/kg/day intralesionally for three consecutive days, versus PBS
# Description: The effect of apoEdp on tumor growth in vivo was observed by testing its inhibitory effect on xenograft tumor growth post-injection in nude mice.
# The test subjects were female nu/nu mice, aged 8-12 weeks, weighing about 20 g. (Charles River Laboratories, Harlan, Indianapolis, Ind.) The mice were weighed, coded, and divided into experimental groups at random. The mice were subcutaneously injected with about 3×10^6 MDA-MB-231 human breast cancer cells in 100 μL PBS. The cells were injected into the right sides of the dorsal area of the test subjects. The tumor size was allowed to reach about 100 mm^3 which took about ten days.
# Following injection of the tumor cells, the subjects were given injections for three consecutive days. About 40 mg/kg/day of apoEdp was injected intralesionally into the test subjects, and about […] of sterile PBS was injected intralesionally into the control subjects.
# In order to evaluate tumor growth, tumor volume was determined every seven days by measuring the tumor with a digital caliper and calculating tumor volume. Volume was calculated using the formula, V=A×B^2×0.52, where A=longest diameter of the tumor, and B=the shortest diameter of the tumor.
# Flk-1 = experiment: Western blot, VEGF-induced phosphorylation of Flk-1 in HUVECs; format: cell-based, human; settings: apoEdp about 6 to about 50 μM for 1 h, VEGF 10 ng/mL ten minutes, concentration dependent
# Description: (§4) The mechanism by which apoEdp inhibits angiogenesis and tumor growth was evaluated using Western Blot Analysis.
# (§5) Confluent HUVECs were grown in EBM-2 containing 1% FBS for twenty-four hours. The medium was then replaced with 1% FBS media in the presence or absence of apoEdp in the range of about 6 μM to about 50 μM. The cells were allowed to grow for one hour; then VEGF was added at a concentration of 10 ng/mL. The cells were then incubated for ten minutes to detect the phosphorylated forms of angiogenic signaling molecules.
# (§6) The cells were lysed, quantified for protein concentration, and separated on 4% to 20% pre-cast SDS-PAGE gels. Western blots were then performed of the control cell lysates and the apoEdp treated cell lysates. The western blots were performed with antibodies against the phosphorylated and non-phosphorylated (control) forms of Flk-1, c-Src, FAK, Erk1/2, Akt and eNOS. (Santa Cruz Biotechnology, Santa Cruz, Calif.).
# c-Src = experiment: Western blot, VEGF-induced phosphorylation of c-Src in HUVECs; format: cell-based, human; settings: apoEdp about 6 to about 50 μM for 1 h, VEGF 10 ng/mL ten minutes, concentration dependent
# Description: as §4, §5, §6
# Akt = experiment: Western blot, VEGF-induced phosphorylation of Akt in HUVECs; format: cell-based, human; settings: apoEdp about 6 to about 50 μM for 1 h, VEGF 10 ng/mL ten minutes, concentration dependent
# Description: as §4, §5, §6
# eNOS = experiment: Western blot, VEGF-induced phosphorylation of eNOS in HUVECs; format: cell-based, human; settings: apoEdp about 6 to about 50 μM for 1 h, VEGF 10 ng/mL ten minutes, concentration dependent
# Description: as §4, §5, §6
# FAK = experiment: Western blot, VEGF-induced phosphorylation of FAK in HUVECs; format: cell-based, human; settings: apoEdp about 6 to about 50 μM for 1 h, VEGF 10 ng/mL ten minutes, concentration dependent
# Description: as §4, §5, §6
# Erk1/2 = experiment: Western blot, VEGF-induced phosphorylation of Erk1/2 in HUVECs; format: cell-based, human; settings: apoEdp about 6 to about 50 μM for 1 h, VEGF 10 ng/mL ten minutes, concentration dependent
# Description: as §4, §5, §6
# [5] = human, human umbilical vein endothelial cells (HUVECs)
# Description: The HUVECs, as described above, were seeded in 96-well plates at about 10,000 cells per well. The next day, the cells were starved for 18 hours in EBM-2+1% FBS without any growth supplement. The HUVECs were then incubated with apoEdp in various concentrations in the range of about 6 μM to about 300 μM. An hour later, 50 ng/mL of vascular endothelial growth factor (VEGF) was introduced. The cells were incubated for two days, and cell numbers were determined using the CellTiter96 AQuous One Solution cell proliferation kit. (Promega, Madison, Wis.)
sequence,measurement,setting,value
LRKLRKRLLLRKLRKRLL [apoEdp],CC50 at 48 h,[1],> 300 µM
same,effect on cell viability,[2],no effect on cell viability
same,VEGF-induced angiogenesis (area of neovascular response),[3],significantly inhibited
same,tumor growth (tumor volume),[4],significantly inhibited
same,VEGF-induced phosphorylation of Flk-1,Flk-1,significantly inhibited
same,VEGF-induced phosphorylation of c-Src,c-Src,significantly inhibited
same,VEGF-induced phosphorylation of Akt,Akt,significantly inhibited
same,VEGF-induced phosphorylation of eNOS,eNOS,significantly inhibited
same,VEGF-induced phosphorylation of FAK,FAK,significantly inhibited
same,VEGF-induced phosphorylation of Erk1/2,Erk1/2,significantly inhibited
same,CC50 at 48 h,[5],~103 µM

# From patent US20120053128A1, “Method of inhibiting angiogenesis” (XAVIER UNIVERSITY, priority 2010, published 2012)
